Data published in patent US10227323B2, “Glucosylceramide synthase inhibitors for the treatment of diseases” (BIOMARIN PHARMACEUTICAL INC., priority 2013, dated 2019).

The compounds below were run against T1, GCS (Canis lupus familiaris, UniProt A0A8I3MXG6) (assay: Assay 1: GCS Enzymatic Assay (MDCK cell lysate, C6-NBD-Ceramide, LC/MS)). Details: Table 2; data marked by *.
T1 sequence (A0A8I3MXG6 1-394): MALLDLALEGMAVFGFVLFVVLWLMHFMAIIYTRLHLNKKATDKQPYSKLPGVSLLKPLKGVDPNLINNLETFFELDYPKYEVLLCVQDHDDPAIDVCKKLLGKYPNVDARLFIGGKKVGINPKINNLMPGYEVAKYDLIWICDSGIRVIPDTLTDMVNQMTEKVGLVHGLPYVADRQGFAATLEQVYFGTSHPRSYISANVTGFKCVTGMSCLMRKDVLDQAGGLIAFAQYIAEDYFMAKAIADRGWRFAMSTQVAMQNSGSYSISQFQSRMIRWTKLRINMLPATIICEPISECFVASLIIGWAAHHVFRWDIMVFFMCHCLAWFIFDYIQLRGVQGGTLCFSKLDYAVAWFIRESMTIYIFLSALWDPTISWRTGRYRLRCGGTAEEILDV
Type: biochemical, canine
Method in brief: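 LC/MS/MS measurement of glucosylceramide and NBD-ceramide after a 1 h, 37 °C reaction with 100 μM UDP-glucose and 10 μM C6-NBD-ceramide gave IC50s or percent inhibition.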
`O=C(N[C@H](CN1CCC1)[C@H](O)c1ccc(OC2CC2)c(Cl)c1)C(F)(F)CCc1ccc2cc(F)ccc2c1` [Compound 134, N-((1R,2R)-3-(azetidin-1-yl)-1-(3-chloro-4-cyclopropoxyphenyl)-1-hydroxypropan-2-yl)-2,2-difluoro-4-(6-fluoronaphthalen-2-yl)butanamide] was tested, and the “% inhibition generated from Assay 1” value was “A* (the compound had a % inhibition of a percent inhibition of greater than or equal to about 50%)”. With `O=C(N[C@H](CN1CCC1)[C@H](O)c1ccc(OC2CC2)c(Cl)c1)/C(CCc1ccc2cc(F)ccc2c1)=N/O` [Compound 137, (E)-N-((1R,2R)-3-(azetidin-1-yl)-1-(3-chloro-4-cyclopropoxyphenyl)-1-hydroxypropan-2-yl)-4-(6-fluoronaphthalen-2-yl)-2-(hydroxyimino)butanamide] the “% inhibition generated from Assay 1” value was “B* (the compound had a % inhibition of greater than or equal to about 3% but less than about 50%)”. `O=C(N[C@H](CN1CCCC1)[C@H](O)c1ccc(OC2CC2)c(Cl)c1)C(F)(F)c1ccc2cc(Cl)ccc2c1` [Compound 139, N-((1R,2R)-1-(3-chloro-4-cyclopropoxyphenyl)-1-hydroxy-3-(pyrrolidin-1-yl)propan-2-yl)-2-(6-chloronaphthalen-2-yl)-2,2-difluoroacetamide] was tested, and the “% inhibition generated from Assay 1” value was “A* (the compound had a % inhibition of a percent inhibition of greater than or equal to about 50%)”. With `O=C(CCc1ccc2ccccc2c1)C(=O)N[C@H](CN1CCC1)[C@H](O)c1cc(F)c2c(c1)OCCO2` [Compound 145, N-((1R,2R)-3-(azetidin-1-yl)-1-(8-fluoro-2,3-dihydrobenzo[b][1,4]dioxin-6-yl)-1-hydroxypropan-2-yl)-4-(naphthalen-2-yl)-2-oxobutanamide] the “% inhibition generated from Assay 1” value was “A* (the compound had a % inhibition of a percent inhibition of greater than or equal to about 50%)”. `O=C(CCc1ccc2ccccc2c1)C(=O)N[C@H](CN1CCCC1)[C@H](O)c1ccc(OC2CC2)c(Cl)c1` [Compound 147, N-((1R,2R)-1-(3-chloro-4-cyclopropoxyphenyl)-1-hydroxy-3-(pyrrolidin-1-yl)propan-2-yl)-4-(naphthalen-2-yl)-2-oxobutanamide] was tested, and the “% inhibition generated from Assay 1” value was “A* (the compound had a % inhibition of a percent inhibition of greater than or equal to about 50%)”. `O=C(CCc1ccc2cc(F)ccc2c1)C(=O)N[C@H](CN1CCC1)[C@H](O)c1ccc(OC2CC2)c(Cl)c1` [Compound 154, N-((1R,2R)-3-(azetidin-1-yl)-1-(3-chloro-4-cyclopropoxyphenyl)-1-hydroxypropan-2-yl)-4-(6-fluoronaphthalen-2-yl)-2-oxobutanamide] was tested, and the “% inhibition generated from Assay 1” value was “B* (the compound had a % inhibition of greater than or equal to about 3% but less than about 50%)”.

Same assay, conditions: Table 2; data without asterisk; read-out: IC50 (nM) generated from Assay 1
In the case of `O=C(N[C@H](CN1CCCC1)[C@H](O)c1cc(F)c2c(c1)OCCO2)C(F)(F)c1ccc2cc(Cl)ccc2c1` [Compound 135, 2-(6-chloronaphthalen-2-yl)-2,2-difluoro-N-((1R,2R)-1-(8-fluoro-2,3-dihydrobenzo[b][1,4]dioxin-6-yl)-1-hydroxy-3-(pyrrolidin-1-yl)propan-2-yl)acetamide], the IC50 is reported as < 50 nM. For `O=C(N[C@H](CN1CCCC1)[C@H](O)c1ccc(OC2CC2)c(Cl)c1)/C(=N/O)c1cc2cc(Cl)ccc2o1` [Compound 136, (E)-N-((1R,2R)-1-(3-chloro-4-cyclopropoxyphenyl)-1-hydroxy-3-(pyrrolidin-1-yl)propan-2-yl)-2-(5-chlorobenzofuran-2-yl)-2-(hydroxyimino)acetamide], the IC50 was < 50 nM. In the case of `O=C(N[C@H](CN1CCCC1)[C@H](O)c1cc(F)c2c(c1)OCCO2)/C(=N/O)c1ccc(-c2ccc(F)cc2)cc1` [Compound 138, (E)-N-((1R,2R)-1-(8-fluoro-2,3-dihydrobenzo[b][1,4]dioxin-6-yl)-1-hydroxy-3-(pyrrolidin-1-yl)propan-2-yl)-2-(4′-fluoro-[1,1′-biphenyl]-4-yl)-2-(hydroxyimino)acetamide], the IC50 is reported as < 50 nM. In the case of `O=C(N[C@H](CN1CCCC1)[C@H](O)c1cc(F)c2c(c1)OCCO2)C(F)(F)c1ccc(-c2ccc(F)cc2)cc1` [Compound 140, 2,2-difluoro-N-((1R,2R)-1-(8-fluoro-2,3-dihydrobenzo[b][1,4]dioxin-6-yl)-1-hydroxy-3-(pyrrolidin-1-yl)propan-2-yl)-2-(4′-fluoro-[1,1′-biphenyl]-4-yl)acetamide], the IC50 is reported as < 50 nM. For `O=C(N[C@H](CN1CCC1)[C@H](O)c1cc(F)c2c(c1)OCCO2)/C(CCc1ccc2ccccc2c1)=N/O` [Compound 141, (E)-N-((1R,2R)-3-(azetidin-1-yl)-1-(8-fluoro-2,3-dihydrobenzo[b][1,4]dioxin-6-yl)-1-hydroxypropan-2-yl)-2-(hydroxyimino)-4-(naphthalen-2-yl)butanamide], the IC50 was < 50 nM. With `O=C(N[C@H](CN1CCCC1)[C@H](O)c1ccc(OC2CC2)c(Cl)c1)/C(CCc1ccc2ccccc2c1)=N/O` [Compound 142, (E)-N-((1R,2R)-1-(3-chloro-4-cyclopropoxyphenyl)-1-hydroxy-3-(pyrrolidin-1-yl)propan-2-yl)-2-(hydroxyimino)-4-(naphthalen-2-yl)butanamide] the IC50 was < 50 nM. `O=C(CCc1ccc2ccccc2c1)C(=O)N[C@H](CN1CCCC1)[C@H](O)c1cc(F)c2c(c1)OCCO2` [Compound 143, N-((1R,2R)-1-(8-fluoro-2,3-dihydrobenzo[b][1,4]dioxin-6-yl)-1-hydroxy-3-(pyrrolidin-1-yl)propan-2-yl)-4-(naphthalen-2-yl)-2-oxobutanamide] was tested, and the IC50 was < 50 nM. `O=C(N[C@H](CN1CCC1)[C@H](O)c1ccc2c(c1)OCCO2)C(F)(F)CCc1ccc2ccccc2c1` [Compound 144, N-((1R,2R)-3-(azetidin-1-yl)-1-(2,3-dihydrobenzo[b][1,4]dioxin-6-yl)-1-hydroxypropan-2-yl)-2,2-difluoro-4-(naphthalen-2-yl)butanamide] was tested, and the IC50 was < 50 nM. For `O=C(N[C@H](CN1CCCC1)[C@H](O)c1ccc(OC2CCOCC2)c(Cl)c1)C(F)(F)c1ccc2cc(Cl)ccc2c1` [Compound 146, N-((1R,2R)-1-(3-chloro-4-((tetrahydro-2H-pyran-4-yl)oxy)phenyl)-1-hydroxy-3-(pyrrolidin-1-yl)propan-2-yl)-2-(6-chloronaphthalen-2-yl)-2,2-difluoroacetamide], the IC50 was < 50 nM. `O=C(N[C@H](CN1CCCC1)[C@H](O)c1cc(F)c2c(c1)OCCO2)/C(CCc1ccc2ccccc2c1)=N/O` [Compound 148, (E)-N-((1R,2R)-1-(8-fluoro-2,3-dihydrobenzo[b][1,4]dioxin-6-yl)-1-hydroxy-3-(pyrrolidin-1-yl)propan-2-yl)-2-(hydroxyimino)-4-(naphthalen-2-yl)butanamide] was tested, and the IC50 was < 50 nM. `O=C(N[C@H](CN1CCCC1)[C@H](O)c1ccc(OC2CC2)c(Cl)c1)C(=O)c1ccc(-c2ccc(F)cc2)cc1` [Compound 149, N-((1R,2R)-1-(3-chloro-4-cyclopropoxyphenyl)-1-hydroxy-3-(pyrrolidin-1-yl)propan-2-yl)-2-(4′-fluoro-[1,1′-biphenyl]-4-yl)-2-oxoacetamide] was tested, and the IC50 was < 50 nM. `O=C(N[C@H](CN1CCC1)[C@H](O)c1cc(F)c2c(c1)OCCO2)C(=O)c1ccc(-c2ccc(F)cc2)cc1` [Compound 150, N-((1R,2R)-3-(azetidin-1-yl)-1-(8-fluoro-2,3-dihydrobenzo[b][1,4]dioxin-6-yl)-1-hydroxypropan-2-yl)-2-(4′-fluoro-[1,1′-biphenyl]-4-yl)-2-oxoacetamide] was tested, and the IC50 was < 50 nM. In the case of `O=C(N[C@H](CN1CCCC1)[C@H](O)c1cc(F)c2c(c1)OCCO2)C(=O)c1ccc2cc(Cl)ccc2c1` [Compound 151, 2-(6-chloronaphthalen-2-yl)-N-((1R,2R)-1-(8-fluoro-2,3-dihydrobenzo[b][1,4]dioxin-6-yl)-1-hydroxy-3-(pyrrolidin-1-yl)propan-2-yl)-2-oxoacetamide], the IC50 is reported as < 50 nM. For `O=C(N[C@H](CN1CCCC1)[C@H](O)c1ccc(OC2CCOCC2)c(Cl)c1)C(=O)c1ccc(-c2ccc(F)cc2)cc1` [Compound 152, N-((1R,2R)-1-(3-chloro-4-((tetrahydro-2H-pyran-4-yl)oxy)phenyl)-1-hydroxy-3-(pyrrolidin-1-yl)propan-2-yl)-2-(4′-fluoro-[1,1′-biphenyl]-4-yl)-2-oxoacetamide], the IC50 was < 50 nM. In the case of `O=C(N[C@H](CN1CCCC1)[C@H](O)c1ccc(OC2CC2)c(Cl)c1)/C(=N/O)c1ccc(-c2ccc(F)cc2)cc1` [Compound 153, (E)-N-((1R,2R)-1-(3-chloro-4-cyclopropoxyphenyl)-1-hydroxy-3-(pyrrolidin-1-yl)propan-2-yl)-2-(4′-fluoro-[1,1′-biphenyl]-4-yl)-2-(hydroxyimino)acetamide], the IC50 is reported as < 50 nM. For `O=C(N[C@H](CN1CCC1)[C@H](O)c1cc(F)c2c(c1)OCCO2)/C(=N/O)c1ccc(-c2ccc(F)cc2)cc1` [Compound 155, (E)-N-((1R,2R)-3-(azetidin-1-yl)-1-(8-fluoro-2,3-dihydrobenzo[b][1,4]dioxin-6-yl)-1-hydroxypropan-2-yl)-2-(4′-fluoro-[1,1′-biphenyl]-4-yl)-2-(hydroxyimino)acetamide], the IC50 was < 50 nM. With `O=C(N[C@H](CN1CCCC1)[C@H](O)c1cc(F)c2c(c1)OCCO2)C(=O)c1ccc2ccc(Cl)cc2c1` [Compound 156, 2-(7-chloronaphthalen-2-yl)-N-((1R,2R)-1-(8-fluoro-2,3-dihydrobenzo[b][1,4]dioxin-6-yl)-1-hydroxy-3-(pyrrolidin-1-yl)propan-2-yl)-2-oxoacetamide] the IC50 was < 50 nM.
